The experiment addresses T1, NF-kappa-B inhibitor alpha (Homo sapiens, UniProt P25963).
T1 sequence (P25963 whole entry): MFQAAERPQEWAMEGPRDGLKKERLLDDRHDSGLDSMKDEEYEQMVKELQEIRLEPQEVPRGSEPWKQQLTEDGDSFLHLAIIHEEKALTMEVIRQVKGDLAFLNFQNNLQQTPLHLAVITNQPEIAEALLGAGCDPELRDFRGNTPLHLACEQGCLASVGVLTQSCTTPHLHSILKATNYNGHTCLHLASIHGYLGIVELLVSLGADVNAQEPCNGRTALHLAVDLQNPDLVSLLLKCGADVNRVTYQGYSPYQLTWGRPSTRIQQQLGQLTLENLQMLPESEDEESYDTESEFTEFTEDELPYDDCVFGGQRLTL
Briefly: Inhibition of TNFalpha-induced IkappaBalpha (unknown origin) phosphorylation expressed in human HeLa cells pretreated 30 mins before TNFalpha addition measured up to 120 mins by ELISA in presence of proteasome inhibitor MG-132.

On to `C=C1C(=O)O[C@@H]2C[C@@]1(C)[C@@H]1C(=O)[C@]3(O)O[C@]14[C@@]2(C)OC(=O)[C@@]4(O)CC[C@H]1[C@H]3CC=C2CC=CC(=O)[C@@]21C`, for which the IC50 came out at 26.2 µM. The figure for `CC1=C(C)C(=O)O[C@@H]([C@](C)(O)[C@]2(O)CC[C@@]3(O)[C@@H]4CC=C5CC=CC(=O)[C@]5(C)[C@H]4CC[C@]23C)C1` [WITHANOLIDE F] is greater than 50 µM; for `C=C1C(=O)O[C@@H]2C[C@@]1(C)[C@@H]1C(=O)[C@]3(O)O[C@]14[C@@]2(C)OC(=O)[C@@]4(O)CC[C@H]1[C@H]3[C@H](O)C=C2CC=CC(=O)[C@@]21C` [PHYSALIN A] it is greater than 50 µM; for `C[C@@]12C[C@H]3OC(=O)[C@]1(O)CO[C@]14O[C@@]5([C@H]2C1=O)[C@@]3(C)OC(=O)[C@@]5(O)CC[C@H]1[C@H]4C[C@H]2O[C@]23CC=CC(=O)[C@]13C` [25-HYDROXY PHYSALIN F] it is 30.1 µM. For `C[C@]12C(=O)C=CCC1=CC[C@@H]1[C@@H]2CC[C@]2(O)C(=O)O[C@@]3(C)[C@H]4C[C@]5(C)[C@@H](CO[C@@]16O[C@@]32[C@H]5C6=O)C(=O)O4` [NSC-287088], the IC50 was determined as 37.5 µM.

Regarding `C[C@@H]1C(=O)O[C@@H]2C[C@@]1(C)[C@@H]1C(=O)[C@]3(O)O[C@]14[C@@]2(C)OC(=O)[C@@]4(O)CC[C@H]1[C@H]3[C@H](O)C=C2CC=CC(=O)[C@@]21C` [PHYSALIN O], the concentration for half-maximal inhibition (IC50) was greater than 50 µM. In the case of `C[C@@]12C[C@H]3OC(=O)[C@@H]1CO[C@]14O[C@]5([C@H]2C1=O)[C@@](O)(CC[C@H]1[C@H]4C[C@H]2O[C@]24CC=CC(=O)[C@]14C)C(=O)O[C@@]35C` [PHYSALIN F], the 50% inhibitory concentration (IC50) turned out to be 27.1 µM. Next, `C[C@]12C(=O)C=CCC1=CC[C@@H]1[C@@H]2CC[C@]2(O)C(=O)O[C@@]3(C)[C@H]4C[C@@](C)([C@@H]5C(=O)[C@]1(O)O[C@@]532)[C@](C)(O)C(=O)O4`: greater than 50 µM; `C[C@@]12C[C@H]3OC(=O)[C@]1(O)CO[C@]14O[C@@]5([C@H]2C1=O)[C@@]3(C)OC(=O)[C@@]5(O)CC[C@H]1[C@H]4C[C@@H]2O[C@@]23CC=CC(=O)[C@]13C` [25-HYDROXY PHYSALIN J]: greater than 50 µM. With `C[C@H]1C(=O)OC[C@H]1C[C@@H](O)[C@](C)(O)[C@]1(O)CC[C@@]2(O)[C@@H]3CC=C4CC=CC(=O)[C@]4(C)[C@H]3CC[C@]12C`, the IC50 was greater than 50 µM. Next, `C[C@]12C(=O)C=CCC1=C[C@@H](O)[C@@H]1[C@@H]2CC[C@@]2(O)C(=O)O[C@@]3(C)[C@H]4C[C@]5(C)[C@@H](CO[C@@]16O[C@]23[C@H]5C6=O)C(=O)O4`: greater than 50 µM; `CC1=C(C)C(=O)O[C@@H]([C@](C)(O)C2=CC[C@@]3(O)[C@@H]4CC=C5CC=CC(=O)[C@]5(C)[C@H]4CC[C@]23C)C1`: greater than 50 µM.

With `CC1=C(C)C(=O)O[C@@H]([C@](C)(O)[C@H]2CC[C@@]3(O)[C@@H]4CC=C5CC=CC(=O)[C@]5(C)[C@H]4CC[C@]23C)C1`, the IC50 was greater than 50 µM.

`C[C@@]12C[C@H]3OC(=O)[C@@H]1CO[C@@]14O[C@]5(C2C1=O)[C@@](O)(CC[C@H]1[C@H]4C[C@@H]2O[C@@]24CC=CC(=O)[C@]14C)C(=O)O[C@@]35C` [PHYSALIN J]: the IC50 was greater than 50 µM. The figure for `C[C@H]1C(=O)OC[C@H]1C[C@@H](O)[C@](C)(O)[C@@]1(O)CC[C@@]2(O)[C@@H]3CC=C4CC=CC(=O)[C@]4(C)[C@H]3CC[C@]12C` is greater than 50 µM.

For `CC1=C(C)C(=O)O[C@@H]([C@](C)(O)[C@]2(O)CC[C@@]3(O)[C@@H]4C[C@H]5O[C@]56CC=CC(=O)[C@]6(C)[C@H]4CC[C@]23C)C1` [WITHANOLIDE E], the IC50 turned out to be 18 µM.
